The record followed here is ChEMBL document CHEMBL1135619, “Cyclosporins: structure-activity relationships for the inhibition of the human MDR1 P-glycoprotein ABC transporter” (J Med Chem, 2002).

Where a SMILES comes first, the peptide text is derived from it. [ ]: non-standard residue; d: D form. NMeBmt(8-OH) = CN[C@H](C(=O)O)[C@H](O)[C@H](C)C/C=C/CO; MeBmt = C/C=C/C[C@@H](C)[C@@H](O)[C@H](NC)C(=O)O; Val(2S-OH) = CC(C)[C@](N)(O)C(=O)O; NMeL = CN[C@@H](CC(C)C)C(=O)O; NMeV = CN[C@H](C(=O)O)C(C)C; Sar = CNCC(=O)O

One data set deals with ATP-dependent translocase ABCB1 (Homo sapiens, UniProt P08183). In words: (§1) Inhibitory activity against Human MDR1 P-Glycoprotein ABC Transporter using leukemia CEM cells.
Sequence of ATP-dependent translocase ABCB1 (P08183 whole entry): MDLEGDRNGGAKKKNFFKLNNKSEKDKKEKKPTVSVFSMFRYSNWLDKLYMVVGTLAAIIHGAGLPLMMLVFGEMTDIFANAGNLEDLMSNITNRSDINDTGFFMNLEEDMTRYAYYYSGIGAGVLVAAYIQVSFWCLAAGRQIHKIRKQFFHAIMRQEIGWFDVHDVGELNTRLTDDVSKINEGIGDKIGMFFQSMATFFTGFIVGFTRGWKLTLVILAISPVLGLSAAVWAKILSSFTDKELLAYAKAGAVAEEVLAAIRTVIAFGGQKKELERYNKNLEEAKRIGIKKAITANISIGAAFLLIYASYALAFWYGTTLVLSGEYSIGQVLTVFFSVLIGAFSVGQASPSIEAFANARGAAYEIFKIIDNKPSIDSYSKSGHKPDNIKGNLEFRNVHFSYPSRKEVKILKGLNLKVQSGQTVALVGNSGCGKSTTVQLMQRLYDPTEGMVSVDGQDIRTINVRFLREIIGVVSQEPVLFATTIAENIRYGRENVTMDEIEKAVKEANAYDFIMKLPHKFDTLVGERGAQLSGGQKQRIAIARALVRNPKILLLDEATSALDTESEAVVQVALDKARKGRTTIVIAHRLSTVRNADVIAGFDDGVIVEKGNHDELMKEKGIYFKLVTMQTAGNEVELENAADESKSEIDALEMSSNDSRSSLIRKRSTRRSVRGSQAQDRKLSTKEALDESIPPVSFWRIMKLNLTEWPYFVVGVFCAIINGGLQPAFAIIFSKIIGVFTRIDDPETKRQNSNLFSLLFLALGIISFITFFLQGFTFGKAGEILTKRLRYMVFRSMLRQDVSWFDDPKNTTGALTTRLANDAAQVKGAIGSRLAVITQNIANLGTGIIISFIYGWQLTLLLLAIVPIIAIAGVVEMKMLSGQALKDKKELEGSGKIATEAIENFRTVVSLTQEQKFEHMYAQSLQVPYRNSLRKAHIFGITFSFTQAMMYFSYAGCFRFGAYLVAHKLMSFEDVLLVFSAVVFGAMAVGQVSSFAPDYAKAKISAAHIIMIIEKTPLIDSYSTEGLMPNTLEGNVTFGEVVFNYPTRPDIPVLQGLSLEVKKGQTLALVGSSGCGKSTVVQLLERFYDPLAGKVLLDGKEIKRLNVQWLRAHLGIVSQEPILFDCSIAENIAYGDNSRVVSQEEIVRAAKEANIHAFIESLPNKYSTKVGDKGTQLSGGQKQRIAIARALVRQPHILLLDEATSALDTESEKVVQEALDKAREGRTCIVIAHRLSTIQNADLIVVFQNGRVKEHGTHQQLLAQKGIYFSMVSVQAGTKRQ
Conditions: not given
For `C/C=C/C[C@@H](C)[C@@H](O)[C@H]1C(=O)N[C@@H](CC)C(=O)N2CCC[C@@H]2C(=O)N(C)[C@@H](CC(C)C)C(=O)N[C@@H](C(C)C)C(=O)N(C)[C@@H](CC(C)C)C(=O)N[C@@H](C)C(=O)N[C@H](C)C(=O)N(C)[C@@H](CC(C)C)C(=O)N(C)[C@@H](CC(C)C)C(=O)N(C)[C@@H](C(C)C)C(=O)N1C`, the concentration for half-maximal inhibition (IC50) is 3.5 µM.

Consider `C/C=C/C[C@@H](C)[C@@H](O)[C@H]1C(=O)N[C@@H](CC)C(=O)N2CCC[C@H]2C(=O)N(C)[C@@H](CC(C)C)C(=O)N[C@@H](C(C)C)C(=O)N(C)[C@@H](CC(C)C)C(=O)N[C@@H](C)C(=O)N[C@H](C)C(=O)N(C)[C@@H](CC(C)C)C(=O)N(C)[C@@H](CC(C)C)C(=O)N(C)[C@@H](C(C)C)C(=O)N1C`, for which the IC50 turned out to be 5.2 µM.

`CC[C@@H]1NC(=O)[C@H](CC2CCCCC2)N(C)C(=O)[C@H](C(C)C)N(C)C(=O)[C@H](CC(C)C)N(C)C(=O)[C@H](CC(C)C)N(C)C(=O)[C@@H](C)NC(=O)[C@H](C)NC(=O)[C@H](CC(C)C)N(C)C(=O)[C@H](C(C)C)NC(=O)[C@H](CC(C)C)N(C)C(=O)CN(C)C1=O` registered an IC50 of 8.1 µM.

In turn, `C/C=C/C[C@@H](C)C[C@H]1C(=O)N[C@@H](CC)C(=O)N(C)CC(=O)N(C)[C@@H](CC(C)C)C(=O)N[C@@H](C(C)C)C(=O)N(C)[C@@H](CC(C)C)C(=O)N[C@@H](C)C(=O)N[C@H](C)C(=O)N(C)[C@@H](CC(C)C)C(=O)N(C)[C@@H](CC(C)C)C(=O)N(C)[C@@H](C(C)C)C(=O)N1C` returned a half-maximal inhibitory concentration (IC50) of 2.2 µM.

`C/C=C/C[C@@H](C)[C@@H](O)[C@H]1C(=O)N[C@@H]([C@@H](C)O)C(=O)N(C)CC(=O)N[C@@H](C(C)C)C(=O)N[C@@H](C(C)C)C(=O)N(C)[C@@H](CC(C)C)C(=O)N[C@@H](C)C(=O)N[C@H](C)C(=O)N(C)[C@@H](CC(C)C)C(=O)N(C)[C@@H](CC(C)C)C(=O)N(C)[C@@H](C(C)C)C(=O)N1C` came in with an IC50 above 100 µM.

`CCCCCC[C@H]1C(=O)N[C@@H](CC)C(=O)N(C)CC(=O)N(C)[C@@H](CC(C)C)C(=O)N[C@@H](C(C)C)C(=O)N(C)[C@@H](CC(C)C)C(=O)N[C@@H](C)C(=O)N[C@H](C)C(=O)N(C)[C@@H](CC(C)C)C(=O)N(C)[C@@H](CC(C)C)C(=O)N(C)[C@@H](C(C)C)C(=O)N1C` came in with a concentration for half-maximal inhibition (IC50) of 4 µM. That is a single-digit micromolar value.

Take `C/C=C/C[C@@H](C)[C@@H](O)[C@H]1C(=O)N[C@@H](CC)C(=O)NCC(=O)N(C)[C@@H](CC(C)C)C(=O)N[C@@H](C(C)C)C(=O)N(C)[C@@H](CC(C)C)C(=O)N[C@@H](C)C(=O)N[C@H](CO)C(=O)N(C)[C@@H](CC(C)C)C(=O)N(C)[C@@H](CC(C)C)C(=O)N(C)[C@@H](C(C)C)C(=O)N1C`: the IC50 is above 30 µM.

`C/C=C/C[C@@H](C)[C@@H](O)[C@H]1C(=O)N[C@@H]([C@@H](C)O)C(=O)N(C)CC(=O)N(C)[C@@H](CC(C)C)C(=O)N[C@@H](CC(C)C)C(=O)N(C)[C@@H](CC(C)C)C(=O)N[C@@H](C)C(=O)N[C@H](C)C(=O)N(C)[C@@H](CC(C)C)C(=O)N[C@@H](C)C(=O)N(C)[C@@H](C(C)C)C(=O)N1C` (cyclo(A[NMeV][MeBmt]T[Sar][NMeL]L[NMeL]A[dA][NMeL])) registered a half-maximal inhibitory concentration (IC50) of 56 µM.

With `C/C=C/C[C@@H](C)[C@@H](O)[C@H]1C(=O)N[C@@H]([C@@H](C)O)C(=O)NCC(=O)N(C)[C@@H](CC(C)C)C(=O)N[C@@H](CC(C)C)C(=O)N(C)[C@@H](CC(C)C)C(=O)N[C@@H](C)C(=O)N[C@](O)(C(C)C)C(=O)N(C)[C@@H](CC(C)C)C(=O)N[C@@H](CC(C)C)C(=O)N(C)[C@@H](C(C)C)C(=O)N1C` (cyclo(A[Val(2S-OH)][NMeL]L[NMeV][MeBmt]TG[NMeL]L[NMeL])), the half-maximal inhibitory concentration (IC50) turned out to be 4 µM.

The compound `C/C=C/C[C@@H](C)[C@@H](O)[C@H]1C(=O)N[C@@H]([C@@H](C)O)C(=O)N(C)CC(=O)N[C@@H](CC(C)C)C(=O)N[C@@H](CC(C)C)C(=O)N(C)[C@@H](CC(C)C)C(=O)N[C@@H](C)C(=O)N[C@](O)(C(C)C)C(=O)N(C)[C@@H](CC(C)C)C(=O)N[C@@H](CC(C)C)C(=O)N(C)[C@@H](C(C)C)C(=O)N1C` (cyclo(A[Val(2S-OH)][NMeL]L[NMeV][MeBmt]T[Sar]LL[NMeL])) showed a half-maximal inhibitory concentration (IC50) of 4.3 µM. The IC50 values of the last two compounds are within 1.5-fold of each other.

`C/C=C/C[C@@H](C)[C@@H](O)[C@H]1C(=O)N[C@@H]([C@@H](C)O)C(=O)N(C)CC(=O)N(C)[C@@H](CC(C)C)C(=O)N[C@@H](CC(C)C)C(=O)N(C)[C@@H](CC(C)C)C(=O)N[C@@H](C)C(=O)N[C@](O)(C(C)C)C(=O)N(C)[C@@H](CC(C)C)C(=O)N[C@@H](CC(C)C)C(=O)N(C)[C@@H](C(C)C)C(=O)N1C` (cyclo(A[Val(2S-OH)][NMeL]L[NMeV][MeBmt]T[Sar][NMeL]L[NMeL])): the midpoint of inhibition, the IC50, lay at 1.6 µM. This IC50 is about 2.7-fold lower than that of the compound before.

In turn, `C/C=C/C[C@@H](C)[C@@H](O)[C@H]1C(=O)N[C@@H]([C@@H](C)O)C(=O)N(C)CC(=O)N(C)[C@@H](CC(C)C)C(=O)N[C@@H](C(C)C)C(=O)N(C)[C@@H](CC(C)C)C(=O)N[C@@H](C)C(=O)N[C@](O)(C(C)C)C(=O)N(C)[C@@H](CC(C)C)C(=O)N[C@@H](CC(C)C)C(=O)N(C)[C@@H](C(C)C)C(=O)N1C` (cyclo(A[Val(2S-OH)][NMeL]L[NMeV][MeBmt]T[Sar][NMeL]V[NMeL])) showed an IC50 of 2.1 µM.

`C/C=C/C[C@@H](C)[C@@H](O)[C@H]1C(=O)N[C@@H]([C@@H](C)O)C(=O)N(C)CC(=O)N(C)[C@@H](CC(C)C)C(=O)N[C@@H](CC(C)C)C(=O)N(C)[C@@H](CC(C)C)C(=O)N[C@@H](C)C(=O)N[C@H](C)C(=O)N(C)[C@@H](CC(C)C)C(=O)N[C@@H](CC(C)C)C(=O)N(C)[C@@H](C(C)C)C(=O)N1C` (cyclo(A[dA][NMeL]L[NMeV][MeBmt]T[Sar][NMeL]L[NMeL])) registered an IC50 of 6 µM.

`CC(C)C[C@H]1C(=O)N[C@@H](C(C)C)C(=O)N(C)[C@@H](CC(C)C)C(=O)N[C@@H](C)C(=O)N[C@H](C)C(=O)N(C)[C@@H](CC(C)C)C(=O)N(C)[C@@H](CC(C)C)C(=O)N(C)[C@@H](C(C)C)C(=O)N(C)[C@@H](CC(C)C)C(=O)N[C@@H](C(C)C)C(=O)N(C)CC(=O)N1C` (cyclo(A[dA][NMeL][NMeL][NMeV][NMeL]V[Sar][NMeL]V[NMeL])) had an IC50 of 7 µM.

In the next data set the target is MDR1 P-glycoprotein (ABCB1) (Homo sapiens, UniProt P08183). The description is as §1. Particulars: human, leukemia CEM cells.
Sequence of MDR1 P-glycoprotein (ABCB1) (P08183 whole entry): as above
As for `C/C=C/C[C@@H](C)[C@@H](O)C1NC(=O)[C@H](C(C)C)N(C)C(=O)[C@H](CC(C)C)N(C)C(=O)[C@H](CC(C)C)N(C)C(=O)[C@@H](C)NC(=O)[C@H](C)NC(=O)[C@@H](CC(C)C)N(C)C(=O)[C@@H](C(C)C)NC(=O)[C@@H](CC(C)C)N(C)C(=O)CN(C)C(=O)[C@H]([C@@H](C)O)NC1=O` (some centres undefined), the IC50 was 17 µM. This lies in the double-digit micromolar range.

`CC[C@@H]1NC(=O)[C@H](C2CCCCC2C)N(C)C(=O)[C@H](C(C)C)N(C)C(=O)[C@H](CC(C)C)N(C)C(=O)[C@H](CC(C)C)N(C)C(=O)[C@@H](C)NC(=O)[C@H](C)NC(=O)[C@H](CC(C)C)N(C)C(=O)[C@H](C(C)C)NC(=O)[C@H](CC(C)C)N(C)C(=O)CN(C)C1=O` (some centres undefined) had a half-maximal inhibitory concentration (IC50) of 13.1 µM. This IC50 and that of the compound before are within 1.5-fold of each other.

Compound `CC/C=C/C[C@@H](C)[C@@H](O)[C@H]1C(=O)N[C@@H](CC)C(=O)N(C)[C@@H](Cc2ccccc2)C(=O)N(C)[C@H](CC(C)C)C(=O)N[C@H](C(C)C)C(=O)N(C)[C@H](CC(C)C)C(=O)N[C@@H](C)C(=O)N[C@H](C)C(=O)N(C)[C@@H](CC(C)C)C(=O)N(C)[C@@H](CC(C)C)C(=O)N(C)[C@@H](C(C)C)C(=O)N1C` showed an IC50 of 1.5 µM.

`C/C=C/C[C@@H](C)[C@@H](O)[C@H]1C(=O)N[C@@H]([C@@H](C)O)C(=O)N(C)CC(=O)N(C)[C@@H](CC(C)C)C(=O)N[C@@H]([C@@H](C)CC)C(=O)N(C)[C@@H](CC(C)C)C(=O)N[C@@H](C)C(=O)N[C@](O)(C(C)C)C(=O)N(C)[C@@H](CC(C)C)C(=O)N[C@@H](CC(C)C)C(=O)N(C)[C@@H](C(C)C)C(=O)N1C` (cyclo(A[Val(2S-OH)][NMeL]L[NMeV][MeBmt]T[Sar][NMeL]I[NMeL])) yielded an IC50 of 1.6 µM.

`CC(C)C[C@@H]1NC(=O)[C@H](CC(C)C)N(C)C(=O)[C@@](O)(C(C)C)NC(=O)[C@H](C)NC(=O)[C@H](CC(C)C)N(C)C(=O)[C@H](CC(C)C)NC(=O)[C@H](CC(C)C)N(C)C(=O)CN(C)C(=O)[C@H]([C@@H](C)O)NC(=O)[C@H]([C@H](O)[C@H](C)C/C=C/CO)N(C)C(=O)[C@H](C(C)C)N(C)C1=O` (cyclo(A[Val(2S-OH)][NMeL]L[NMeV][NMeBmt(8-OH)]T[Sar][NMeL]L[NMeL])) yielded an IC50 of 15.8 µM.

For orientation: IC50 means the concentration that gives 50% inhibition. A high value points to a need for much substance.
